Data reported in patent US20010049390A1, “Prevention of pest feed harm on a fibrous product” (priority 2000, published 2001).

Tests used:
[1] = system: middle instar larvae webbing clothes moth (Tineola bisselliella); assay: Test Example 1 / Comparative Example 1: pest feed harm on treated wool muslin, infested after drying; type: in vivo; design: key: “+++” for a heavy level of the pest feed harm; “++” for a normal level of the pest feed harm; “+” for a minor level of the pest feed harm; “−” for no visual pest feed harm; conditions: 10 larvae, 7 days of infestation at 25±2° C., repeats 1-5
Source text: One-tenth (0.1) milliliter of acetone solutions composed of 0.1% w/v and 0.3% w/v of 1-methyl-2-nitro-3-[(3-tetrahydrofuryl)methyl]guanidine (hereinafter referred to as the present compound), respectively, was eye-dropped with a pipette onto wool muslins.
Each of the resulting wool muslins was then allowed to dry and was placed on the bottom portion of a plastic container.
Ten (10) middle instar larvae webbing clothes moth (Tineola bisselliella) were then placed, respectively, into the plastic container, and a nylon net was set on the top portion of the plastic container to cover the opening thereof. After 7 days of infestation under 25±2° C., the pest feed harm on the wool muslins were examined. The standards to the pest feed harm were “+++” for a heavy level of the pest feed harm, “++” for a normal level of the pest feed harm, “+” for a minor level of the pest feed harm and “−” for no visual pest feed harm. The tests were repeated 5 times.
(§1) Further, as a control, a test utilizing a wool muslin to which no composition was applied was similarly conducted. The control was repeated twice.
One-tenth (0.1) milliliter of acetone solutions composed of 0.1% w/v and 0.3% w/v of (E)-1-ethynyl-2-methyl-pent-2-enyl-(1R)-cis,trans-chrysanthemate (hereinafter referred to as comparative compound 1), respectively, was eye-dropped with a pipette onto wool muslins.
Ten (10) middle instar larvae webbing clothes moth (Tineola bisselliella) were then placed, respectively, into the plastic container, and a nylon net was set on the top portion of the plastic container to cover the opening thereof. After 7 days of infestation under 25±2° C., the pest feed harm on the wool muslins were examined. The standards to the pest feed harm were “+++” for a heavy level of the pest feed harm, “++” for a normal level of the pest feed harm, “+” for a minor level of the pest feed harm and “−” for no visual pest feed harm. The comparative experiments were repeated 5 times.

[2] = system: middle instar larvae webbing clothes moth (Tineola bisselliella); assay: Test Example 2 / Comparative Example 2: pest feed harm on treated wool muslin preserved for 2 weeks before infestation; type: in vivo; design: key: “+++” for a heavy level of the pest feed harm; “++” for a normal level of the pest feed harm; “+” for a minor level of the pest feed harm; “−” for no visual feed harm; conditions: preserved at 25±2° C. for 2 weeks before test, 10 larvae, 7 days of infestation, repeats 1-5
Procedure: One-tenth (0.1) milliliter of acetone solutions composed of 0.1% w/v and 0.3% w/v of the present compound, respectively, was eye-dropped with a pipette onto wool muslins.
Each of the resulting wool muslins was then preserved at 25±2° C. for 2 weeks. After the 2 weeks, each of the wool muslins was placed on the bottom portion of a plastic container.
Ten (10) middle instar larvae webbing clothes moth (Tineola bisselliella) were then placed, respectively, into the plastic container and a nylon net was set on the top portion of the plastic container to cover the opening thereof. After 7 days of infestation under 25±2° C., the pest feed harm on the wool muslins were examined. The standards to the pest feed harm were “+++” for a heavy level of the pest feed harm, “++” for a normal level of the pest feed harm, “+” for a minor level of the pest feed harm and “−” for no visual feed harm. The tests were repeated 5 times.
as §1
One-tenth (0.1) milliliter of acetone solutions composed of 0.1% w/v and 0.3% w/v of Comparative compound 1, respectively, was eye-dropped with a pipette onto wool muslins.
Ten (10) middle instar larvae webbing clothes moth (Tineola bisselliella) were then placed, respectively, into the plastic container and a nylon net was set on the top portion of the plastic container to cover the opening thereof. After 7 days of infestation under 25±2° C., the pest feed harm on the wool muslins were examined. The standards to the pest feed harm were “+++” for a heavy level of the pest feed harm, “++” for a normal level of the pest feed harm, “+” for a minor level of the pest feed harm and “−” for no visual pest feed harm. The comparative experiments were repeated 5 times.

[3] = application amount 25 mg/m^2 on wool muslin
[4] = application amount 75 mg/m^2 on wool muslin

| Structure (SMILES) | Pest feed harm [1, 3] | Pest feed harm [1, 4] | Pest feed harm [2, 3] | Pest feed harm [2, 4] |
| --- | --- | --- | --- | --- |
| C#CC(OC(=O)C1C(C=C(C)C)C1(C)C)/C(C)=C/CC (mixture of isomers) [Comparative compound 1, (E)-1-ethynyl-2-methyl-pent-2-enyl-(1R)-cis,trans-chrysanthemate] | + + and + | + and + + | + + + | + + + |
| CNC(=N[N+](=O)[O-])NCC1CCOC1 (centres unmarked) [Present compound, 1-methyl-2-nitro-3-[(3-tetrahydrofuryl)methyl]guanidine] | − | − | − | − |
